From ChEMBL document CHEMBL5465560, “Selectivity Literature for EUbOPEN Chemogenomic Library” (2024)
Blank lines part the entries; values can stand above or below the compound they belong to.

Columns and labels:
[1] = target: Cyclin-dependent kinase 2/cyclin A (Homo sapiens, UniProt P24941); assay: Selectivity interaction (Enyzmatic assay) EUB0000601a CDK2; format: protein-complex assay
[2] = target: Ribosomal protein S6 kinase alpha-4 (Homo sapiens) (UniProt O75676); assay: Selectivity interaction (Ambit KINOMEscan and KiNATiv profiling in Jurkat cells) EUB0000090b RPS6KA4; format: cell-based; details: at 1 µM
[3] = target: MAP kinase-activated protein kinase 2 (Homo sapiens, UniProt P49137); assay: Selectivity interaction (Millipore kinase profiler) EUB0000124b MAPKAPK2; details: at 10 µM
[4] = target: T1, Testis-specific serine/threonine-protein kinase 2 (Homo sapiens) (UniProt Q96PF2); assay: Selectivity interaction (SelectScreen profiling (Invitrogen)) EUB0000607a TSSK2; details: at 2 µM
T1 sequence (whole entry): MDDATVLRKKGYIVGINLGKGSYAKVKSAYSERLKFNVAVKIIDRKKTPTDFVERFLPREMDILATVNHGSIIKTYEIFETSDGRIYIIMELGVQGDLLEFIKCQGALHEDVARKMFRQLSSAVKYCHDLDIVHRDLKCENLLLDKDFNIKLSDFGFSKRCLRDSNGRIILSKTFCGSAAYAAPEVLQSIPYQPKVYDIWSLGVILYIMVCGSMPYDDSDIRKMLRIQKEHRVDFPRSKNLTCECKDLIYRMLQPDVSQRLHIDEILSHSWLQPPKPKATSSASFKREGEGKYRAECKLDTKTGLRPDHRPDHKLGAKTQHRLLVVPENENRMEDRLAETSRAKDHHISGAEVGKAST

[5] = target: ALK tyrosine kinase receptor (Homo sapiens, UniProt Q9UM73); assay: Selectivity interaction (KinomeScan (DiscoverX)) EUB0000045b ALK
[6] = target: Dual specificity mitogen-activated protein kinase kinase 2 (Homo sapiens) (UniProt P36507); assay: Selectivity interaction (KinomeScan (DiscoverX)) EUB0000045b MAP2K2
[7] = target: Phosphatidylinositol 4,5-bisphosphate 3-kinase catalytic subunit beta isoform (Homo sapiens) (UniProt P42338); assay: Selectivity interaction (KinomeScan (DiscoverX)) EUB0000045b PIK3CB
[8] = target: Serine/threonine-protein kinase PRP4 homolog (Homo sapiens) (UniProt Q13523); assay: Selectivity interaction (KinomeScan (DiscoverX)) EUB0000045b PRPF4B
[9] = target: LIM domain kinase 1 (Homo sapiens) (UniProt P53667); assay: Selectivity interaction (Upstate Kinase Profiler service (Millipore)) EUB0000056c LIMK1; details: at 1 µM
[10] = target: Serine/threonine-protein kinase pim-1 (Homo sapiens, UniProt P11309)
[11] = target: Cyclin-dependent kinase 17 (Homo sapiens) (UniProt Q00537); assay: Selectivity interaction (KinomeScan (DiscoverX)) EUB0000229b CDK17; details: at 10 µM
[12] = target: T2, Mitogen-activated protein kinase 13 (Homo sapiens) (UniProt O15264); assay: Selectivity interaction (KinomeScan (DiscoverX)) EUB0000229b MAPK13; details: at 10 µM
T2 sequence (whole entry): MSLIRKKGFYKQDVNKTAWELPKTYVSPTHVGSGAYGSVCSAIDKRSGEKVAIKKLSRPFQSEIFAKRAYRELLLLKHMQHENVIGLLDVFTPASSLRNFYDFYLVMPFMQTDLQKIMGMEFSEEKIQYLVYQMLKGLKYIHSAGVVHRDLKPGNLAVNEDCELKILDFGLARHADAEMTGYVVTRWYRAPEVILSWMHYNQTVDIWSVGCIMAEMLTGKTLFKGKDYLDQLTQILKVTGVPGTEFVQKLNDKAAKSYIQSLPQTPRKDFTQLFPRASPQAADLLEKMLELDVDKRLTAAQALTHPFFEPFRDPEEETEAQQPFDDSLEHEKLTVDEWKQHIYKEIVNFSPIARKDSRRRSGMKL

[13] = target: Serine/threonine-protein kinase PAK 4 (Homo sapiens, UniProt O96013); assay: Selectivity interaction (KinomeScan (DiscoverX)) EUB0000229b PAK4; details: at 10 µM
[14] = target: Myosin-IIIa (Homo sapiens) (UniProt Q8NEV4); assay: Selectivity interaction (KinomeScan (DiscoverX)) EUB0001049a MYO3A; details: at 1 µM
[15] = target: Ribosomal protein S6 kinase alpha-1 (Homo sapiens, UniProt Q15418); assay: Selectivity interaction (KinomeScan (DiscoverX)) EUB0001049a RPS6KA1; details: at 1 µM
[16] = target: 5-hydroxytryptamine receptor 3A (Homo sapiens, UniProt P46098); assay: Selectivity interaction (Serotonin 5HT3 receptor assay, human recombinant ) EUB0000877a HTR3A
[17] = target: Histone-lysine N-methyltransferase 2A (Homo sapiens) (UniProt Q03164); assay: Selectivity interaction (Human bromodomain panel (DSF assay)) EUB0000233b MLL
[18] = target: Serine/threonine-protein kinase SIK3 (Homo sapiens) (UniProt Q9Y2K2); assay: Selectivity interaction (LanthaScreen Eu Kinase Binding Assay) EUB0001632a SIK3; details: at 10 µM
[19] = target: Tyrosine-protein kinase receptor Tie-1 (Homo sapiens) (UniProt P35590); assay: Selectivity interaction (KinomeScan (DiscoverX)) EUB0000695a TIE1; details: at 100 nM

Chain of Phosphatidylinositol 4,5-bisphosphate 3-kinase catalytic subunit beta isoform (Homo sapiens) (P42338 whole entry, looked up, canonical isoform): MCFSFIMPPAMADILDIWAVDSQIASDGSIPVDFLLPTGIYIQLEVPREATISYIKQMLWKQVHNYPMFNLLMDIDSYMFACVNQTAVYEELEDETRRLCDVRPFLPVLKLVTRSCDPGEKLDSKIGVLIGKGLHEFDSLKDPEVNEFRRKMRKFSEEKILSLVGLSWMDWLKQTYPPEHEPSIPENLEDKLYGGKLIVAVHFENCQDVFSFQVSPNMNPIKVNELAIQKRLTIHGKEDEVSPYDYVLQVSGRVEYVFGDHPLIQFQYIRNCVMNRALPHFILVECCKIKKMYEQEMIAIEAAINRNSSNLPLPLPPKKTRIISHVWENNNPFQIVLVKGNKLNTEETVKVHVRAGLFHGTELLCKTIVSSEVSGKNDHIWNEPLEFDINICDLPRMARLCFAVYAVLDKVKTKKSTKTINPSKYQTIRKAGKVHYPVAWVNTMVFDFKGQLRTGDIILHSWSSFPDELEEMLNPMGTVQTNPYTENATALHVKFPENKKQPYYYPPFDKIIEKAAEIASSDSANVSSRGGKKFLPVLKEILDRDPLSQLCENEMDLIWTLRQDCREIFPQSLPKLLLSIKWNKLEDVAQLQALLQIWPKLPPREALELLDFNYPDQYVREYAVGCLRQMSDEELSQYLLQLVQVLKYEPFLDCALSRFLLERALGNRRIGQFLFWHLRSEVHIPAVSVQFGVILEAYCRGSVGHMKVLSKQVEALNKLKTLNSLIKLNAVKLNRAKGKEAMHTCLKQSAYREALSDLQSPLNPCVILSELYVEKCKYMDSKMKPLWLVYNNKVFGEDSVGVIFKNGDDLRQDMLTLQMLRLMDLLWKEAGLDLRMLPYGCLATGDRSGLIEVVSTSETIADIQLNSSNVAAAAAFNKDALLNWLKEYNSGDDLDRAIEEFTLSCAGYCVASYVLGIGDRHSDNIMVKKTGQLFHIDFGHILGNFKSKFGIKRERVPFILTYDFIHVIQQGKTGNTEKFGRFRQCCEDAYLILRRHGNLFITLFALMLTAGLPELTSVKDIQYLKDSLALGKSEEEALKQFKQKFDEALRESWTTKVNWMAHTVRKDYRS
Chain of Serine/threonine-protein kinase PRP4 homolog (Homo sapiens) (Q13523 whole entry, the tested form may be a part): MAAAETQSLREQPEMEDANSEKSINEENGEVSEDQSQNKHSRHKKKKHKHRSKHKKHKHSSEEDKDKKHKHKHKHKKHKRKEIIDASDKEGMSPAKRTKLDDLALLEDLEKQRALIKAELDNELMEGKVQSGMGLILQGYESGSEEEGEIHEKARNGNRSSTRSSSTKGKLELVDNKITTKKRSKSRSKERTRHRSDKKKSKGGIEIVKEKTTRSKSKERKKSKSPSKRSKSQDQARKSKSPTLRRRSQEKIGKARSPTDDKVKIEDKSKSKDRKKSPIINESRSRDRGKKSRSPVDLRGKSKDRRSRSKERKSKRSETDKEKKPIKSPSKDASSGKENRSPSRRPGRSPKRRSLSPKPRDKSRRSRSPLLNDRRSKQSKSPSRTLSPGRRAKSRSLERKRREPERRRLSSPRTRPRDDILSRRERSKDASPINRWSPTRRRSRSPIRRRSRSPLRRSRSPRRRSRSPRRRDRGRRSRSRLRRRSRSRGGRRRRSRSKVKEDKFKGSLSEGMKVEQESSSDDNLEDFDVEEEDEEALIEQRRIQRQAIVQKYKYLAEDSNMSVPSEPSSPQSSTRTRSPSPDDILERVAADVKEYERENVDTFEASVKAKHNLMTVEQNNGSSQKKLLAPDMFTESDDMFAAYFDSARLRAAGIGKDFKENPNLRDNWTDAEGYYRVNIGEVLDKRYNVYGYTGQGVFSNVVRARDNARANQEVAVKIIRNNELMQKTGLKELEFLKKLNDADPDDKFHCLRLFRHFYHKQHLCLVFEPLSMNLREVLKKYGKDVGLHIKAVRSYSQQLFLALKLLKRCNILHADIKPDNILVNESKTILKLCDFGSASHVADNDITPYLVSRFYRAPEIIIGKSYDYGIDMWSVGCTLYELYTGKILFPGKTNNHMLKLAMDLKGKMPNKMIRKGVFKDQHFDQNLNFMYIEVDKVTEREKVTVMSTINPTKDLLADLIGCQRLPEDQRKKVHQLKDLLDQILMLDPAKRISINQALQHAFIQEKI
Chain of Dual specificity mitogen-activated protein kinase kinase 2 (Homo sapiens) (P36507 whole entry, canonical isoform): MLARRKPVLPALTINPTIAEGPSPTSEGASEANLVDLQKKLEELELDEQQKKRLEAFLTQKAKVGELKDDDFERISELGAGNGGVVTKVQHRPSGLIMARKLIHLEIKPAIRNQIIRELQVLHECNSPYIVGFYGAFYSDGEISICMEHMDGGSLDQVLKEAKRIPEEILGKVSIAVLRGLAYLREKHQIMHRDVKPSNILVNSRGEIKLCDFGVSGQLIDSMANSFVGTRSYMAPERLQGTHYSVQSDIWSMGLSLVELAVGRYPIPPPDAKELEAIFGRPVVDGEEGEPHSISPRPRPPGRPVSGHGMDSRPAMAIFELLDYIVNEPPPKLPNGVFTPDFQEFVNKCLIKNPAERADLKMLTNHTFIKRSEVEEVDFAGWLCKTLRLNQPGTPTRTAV
Chain of ALK tyrosine kinase receptor (Q9UM73 19-1620 limits assumed): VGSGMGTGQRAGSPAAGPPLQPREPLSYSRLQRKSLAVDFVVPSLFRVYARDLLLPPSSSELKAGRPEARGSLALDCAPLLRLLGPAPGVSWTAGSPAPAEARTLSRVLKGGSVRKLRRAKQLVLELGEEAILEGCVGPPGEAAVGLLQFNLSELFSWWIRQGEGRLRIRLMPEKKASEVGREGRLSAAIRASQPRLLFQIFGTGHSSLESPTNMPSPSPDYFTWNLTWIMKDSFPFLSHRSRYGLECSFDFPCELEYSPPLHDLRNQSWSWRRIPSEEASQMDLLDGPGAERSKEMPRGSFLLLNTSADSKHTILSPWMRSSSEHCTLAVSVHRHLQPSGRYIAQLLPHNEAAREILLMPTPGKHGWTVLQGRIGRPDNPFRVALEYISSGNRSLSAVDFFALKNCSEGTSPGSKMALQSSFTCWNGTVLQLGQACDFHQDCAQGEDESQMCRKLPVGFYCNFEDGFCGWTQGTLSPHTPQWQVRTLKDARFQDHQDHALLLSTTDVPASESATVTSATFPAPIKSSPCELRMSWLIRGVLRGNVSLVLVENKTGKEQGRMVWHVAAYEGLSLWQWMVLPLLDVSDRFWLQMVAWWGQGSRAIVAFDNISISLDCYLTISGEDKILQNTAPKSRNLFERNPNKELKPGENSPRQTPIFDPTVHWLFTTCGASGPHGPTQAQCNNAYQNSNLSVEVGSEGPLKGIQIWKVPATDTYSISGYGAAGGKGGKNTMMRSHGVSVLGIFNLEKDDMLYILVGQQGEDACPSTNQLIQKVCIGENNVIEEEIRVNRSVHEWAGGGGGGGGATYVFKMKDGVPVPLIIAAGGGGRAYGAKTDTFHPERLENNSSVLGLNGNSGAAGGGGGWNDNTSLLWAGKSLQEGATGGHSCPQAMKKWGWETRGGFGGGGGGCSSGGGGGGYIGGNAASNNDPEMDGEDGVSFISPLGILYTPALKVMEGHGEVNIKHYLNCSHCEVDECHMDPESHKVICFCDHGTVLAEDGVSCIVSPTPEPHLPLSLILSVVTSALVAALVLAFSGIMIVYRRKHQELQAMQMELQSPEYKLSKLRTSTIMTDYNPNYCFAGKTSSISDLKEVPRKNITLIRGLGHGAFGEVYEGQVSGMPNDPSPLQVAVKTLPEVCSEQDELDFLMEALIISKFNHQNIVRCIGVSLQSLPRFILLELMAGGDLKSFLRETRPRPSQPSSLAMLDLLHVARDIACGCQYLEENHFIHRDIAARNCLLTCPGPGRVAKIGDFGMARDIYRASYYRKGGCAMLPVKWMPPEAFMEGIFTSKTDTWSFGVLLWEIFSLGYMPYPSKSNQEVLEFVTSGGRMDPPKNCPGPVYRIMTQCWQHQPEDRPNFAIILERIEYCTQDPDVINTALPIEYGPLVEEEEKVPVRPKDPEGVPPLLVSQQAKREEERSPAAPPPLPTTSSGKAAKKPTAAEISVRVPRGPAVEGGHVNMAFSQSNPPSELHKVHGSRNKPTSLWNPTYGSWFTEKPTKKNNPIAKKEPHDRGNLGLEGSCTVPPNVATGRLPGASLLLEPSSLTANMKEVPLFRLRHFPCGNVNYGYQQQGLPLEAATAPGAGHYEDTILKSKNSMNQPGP
Chain of Cyclin-dependent kinase 17 (Homo sapiens) (Q00537 whole entry, looked up): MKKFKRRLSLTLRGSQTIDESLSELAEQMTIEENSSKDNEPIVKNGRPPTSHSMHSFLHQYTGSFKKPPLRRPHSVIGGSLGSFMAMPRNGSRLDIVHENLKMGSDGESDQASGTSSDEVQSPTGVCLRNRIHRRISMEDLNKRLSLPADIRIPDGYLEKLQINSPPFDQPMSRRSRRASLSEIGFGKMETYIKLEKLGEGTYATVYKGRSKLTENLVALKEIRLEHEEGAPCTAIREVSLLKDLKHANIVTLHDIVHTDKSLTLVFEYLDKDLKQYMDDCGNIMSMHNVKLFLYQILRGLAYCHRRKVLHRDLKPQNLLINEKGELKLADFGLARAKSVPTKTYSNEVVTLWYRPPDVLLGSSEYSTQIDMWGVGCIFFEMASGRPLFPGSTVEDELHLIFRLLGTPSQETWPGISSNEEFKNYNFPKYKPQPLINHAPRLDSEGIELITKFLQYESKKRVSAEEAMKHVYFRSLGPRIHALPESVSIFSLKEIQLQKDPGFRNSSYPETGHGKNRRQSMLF
Chain of Serine/threonine-protein kinase pim-1 (P11309 whole entry): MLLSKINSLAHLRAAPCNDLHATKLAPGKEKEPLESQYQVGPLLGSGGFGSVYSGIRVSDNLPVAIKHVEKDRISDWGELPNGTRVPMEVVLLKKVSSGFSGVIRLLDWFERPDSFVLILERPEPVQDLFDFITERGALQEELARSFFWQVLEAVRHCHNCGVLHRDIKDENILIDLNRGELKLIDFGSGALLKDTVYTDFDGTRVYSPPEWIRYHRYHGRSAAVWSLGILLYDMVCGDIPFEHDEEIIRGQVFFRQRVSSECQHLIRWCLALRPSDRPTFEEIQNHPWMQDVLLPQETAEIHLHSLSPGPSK

IC50 [1]: > 10 µM
SMILES: CCc1cc(Nc2nccc(-c3c(-c4ccc(OC)c(C(=O)Nc5c(F)cccc5F)c4)nc4ccccn34)n2)c(OC)cc1N1CCC(N2CCN(S(C)(=O)=O)CC2)CC1

SMILES: CN(C)C/C=C/C(=O)Nc1ccc(C(=O)N2CCCC(Nc3ncc(Cl)c(-c4c[nH]c5ccccc45)n3)C2)cc1 (stereo not drawn)
% of control [2]: 100%

% of control [3]: 109%
SMILES: CC(=O)Nc1cccc(-n2c(=O)n(C3CC3)c(=O)c3c(Nc4ccc(I)cc4F)n(C)c(=O)c(C)c32)c1

SMILES: CNC(=O)Nc1ccc(-c2nc(N3CC4CCC(C3)O4)c3cnn(C4CCC5(CC4)OCCO5)c3n2)cc1
% of inhibition [4]: 2%

SMILES: C=CC(=O)Nc1cc(-n2c(=O)ccc3cnc4ccc(-c5ccc(NS(C)(=O)=O)cc5)cc4c32)ccc1C
% of control ([5]; at 1 µM): 100%
% of control ([5]; at 10 µM): 100%
% of control ([6]; at 1 µM): 96%
% of control ([6]; at 10 µM): 66%
% of control ([7]; at 1 µM): 75%
% of control ([7]; at 10 µM): 44%
% of control ([8]; at 1 µM): 95%
% of control ([8]; at 10 µM): 89%

% of inhibition [9]: 4%
SMILES: Cc1ccc(-c2ccc3c(ccc4sc5c(c43)NC[C@@H](C)NC5=O)n2)cn1

IC50 [10]: > 10 µM
SMILES: CCc1cccc(CC)c1NC(=O)c1nn(C)c2c1CCc1cnc(Nc3ccc(C(=O)NC4CCN(C)CC4)cc3OC(F)(F)F)nc1-2

SMILES: COc1cc(N(C)c2ccnc3ccc(C(F)(F)F)cc23)cc(OC)c1OC
% binding [11]: 88%
% binding [12]: 78%
% binding [13]: 81%

SMILES: COc1cc(Nc2nc(C)cc(-c3cnn4nc(OC)ccc34)n2)cc(C(F)(F)F)c1
% of control [14]: 87%
% of control [15]: 100%

IC50 [16]: > 30 µM
SMILES: CCC(=O)N1CC[C@H](Nc2ncnc3c2CN(c2cnc(OC)c(C(F)(F)F)c2)CC3)C1 [LENIOLISIB]

dTM [17]: < 2 K
SMILES: CN(C)CCCOc1ccc(-c2cc(NCCCn3cccn3)nc(S(C)(=O)=O)n2)cc1

% of inhibition [18]: 12.2%
SMILES: Cn1cc(-n2cnc3c(NCc4nc5cc(Cl)c(Cl)cc5[nH]4)nc(N4CCOCC4)nc32)cn1

SMILES: Cc1cc(F)c(C(=O)Nc2cccc(-c3nncn3C(C)C)n2)cc1-n1cnc(C2CC2)c1
% of control [19]: 87%
